Source: ChEMBL document CHEMBL5247656, “Discovery of a Potent, Cooperative, and Selective SOS1 PROTAC ZZ151 with In Vivo Antitumor Efficacy in KRAS-Mutant Cancers” (J Med Chem, 2023)

What was measured:
[1] = target: T1, von Hippel-Lindau disease tumor suppressor/Son of sevenless homolog 1 (Homo sapiens) (UniProt Q07889+P40337); assay: PROTAC activity at VHL/SOS1 in human NCI-H358 cells assessed as induction of SOS1 protein degradation at 0.1 uM incubated for 24 hrs by Immunoblot analysis relative to control; type: cell-based
T1 sequence (P40337 whole entry, looked up): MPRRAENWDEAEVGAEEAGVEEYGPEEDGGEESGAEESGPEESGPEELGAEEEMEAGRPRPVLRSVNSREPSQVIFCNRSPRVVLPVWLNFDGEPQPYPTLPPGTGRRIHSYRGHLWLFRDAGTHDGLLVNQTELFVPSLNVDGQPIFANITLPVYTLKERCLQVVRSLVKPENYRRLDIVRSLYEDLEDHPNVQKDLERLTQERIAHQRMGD
T1 sequence (Q07889 whole entry, looked up): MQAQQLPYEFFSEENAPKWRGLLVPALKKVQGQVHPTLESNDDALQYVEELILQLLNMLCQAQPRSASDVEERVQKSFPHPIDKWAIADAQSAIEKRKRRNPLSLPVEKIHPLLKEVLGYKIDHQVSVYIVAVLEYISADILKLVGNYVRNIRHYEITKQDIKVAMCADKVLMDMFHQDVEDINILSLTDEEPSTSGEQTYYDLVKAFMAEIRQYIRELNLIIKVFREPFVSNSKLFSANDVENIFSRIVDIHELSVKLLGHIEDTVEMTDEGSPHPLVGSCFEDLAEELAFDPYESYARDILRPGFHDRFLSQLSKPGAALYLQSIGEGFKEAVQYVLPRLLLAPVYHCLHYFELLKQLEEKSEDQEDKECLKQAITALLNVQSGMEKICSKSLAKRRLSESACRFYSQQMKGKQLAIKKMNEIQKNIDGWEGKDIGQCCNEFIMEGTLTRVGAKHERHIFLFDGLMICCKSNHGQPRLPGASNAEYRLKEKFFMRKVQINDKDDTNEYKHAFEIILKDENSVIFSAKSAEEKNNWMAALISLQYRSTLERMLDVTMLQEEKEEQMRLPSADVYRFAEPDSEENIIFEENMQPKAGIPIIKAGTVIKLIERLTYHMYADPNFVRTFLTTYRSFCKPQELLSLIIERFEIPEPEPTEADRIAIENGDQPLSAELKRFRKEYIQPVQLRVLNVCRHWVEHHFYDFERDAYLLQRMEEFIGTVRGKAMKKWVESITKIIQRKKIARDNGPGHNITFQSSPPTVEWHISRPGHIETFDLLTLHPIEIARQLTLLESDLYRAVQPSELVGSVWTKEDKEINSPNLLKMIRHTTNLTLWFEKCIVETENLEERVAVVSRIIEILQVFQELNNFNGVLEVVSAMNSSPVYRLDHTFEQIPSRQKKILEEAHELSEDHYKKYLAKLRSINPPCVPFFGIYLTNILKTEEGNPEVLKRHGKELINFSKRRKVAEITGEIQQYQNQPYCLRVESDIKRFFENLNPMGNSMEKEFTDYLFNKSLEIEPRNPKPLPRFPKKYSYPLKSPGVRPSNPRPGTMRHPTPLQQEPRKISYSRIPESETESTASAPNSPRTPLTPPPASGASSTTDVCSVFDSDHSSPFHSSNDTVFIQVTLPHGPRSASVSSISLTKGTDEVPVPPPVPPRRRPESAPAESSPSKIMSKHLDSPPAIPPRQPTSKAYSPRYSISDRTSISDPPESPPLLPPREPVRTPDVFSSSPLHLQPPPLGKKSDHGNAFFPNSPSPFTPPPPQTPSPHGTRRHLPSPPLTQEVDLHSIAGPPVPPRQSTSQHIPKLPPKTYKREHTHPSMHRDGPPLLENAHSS

[2] = target: T1, von Hippel-Lindau disease tumor suppressor/Son of sevenless homolog 1 (Homo sapiens); assay: PROTAC activity at VHL/SOS1 in human NCI-H358 cells assessed as induction of SOS1 protein degradation at 1.0 uM incubated for 24 hrs by Immunoblot analysis relative to control; type: cell-based

Row | Activity [1] | Activity [2] | SMILES
1 | 9.25% | 7.32% | COc1cc2nc(C)nc(N[C@H](C)c3cc(N)cc(C(F)(F)F)c3)c2cc1C1CCN(CCCCCCCC(=O)N[C@H](C(=O)N2C[C@H](O)C[C@H]2C(=O)N[C@@H](C)c2ccc(-c3scnc3C)cc2)C(C)(C)C)CC1
2 | 3.24% | 8.52% | COc1cc2nc(C)nc(N[C@H](C)c3cc(N)cc(C(F)(F)F)c3)c2cc1C1CCN(C(=O)[C@H]2CC[C@H](C(=O)N[C@H](C(=O)N3C[C@H](O)C[C@H]3C(=O)N[C@@H](C)c3ccc(-c4scnc4C)cc3)C(C)(C)C)CC2)CC1
3 | 31.4% | 80.2% | COc1cc2nc(C)nc(N[C@H](C)c3cc(N)cc(C(F)(F)F)c3)c2cc1C1CCN(C(=O)CCCCCCCC(=O)N[C@H](C(=O)N2C[C@H](O)C[C@H]2C(=O)N[C@@H](C)c2ccc(-c3scnc3C)cc2)C(C)(C)C)CC1
4 | 9.8% | 11.2% | COc1cc2nc(C)nc(N[C@H](C)c3cc(N)cc(C(F)(F)F)c3)c2cc1C1CCN(C(=O)C2CN(CCC(=O)N[C@H](C(=O)N3C[C@H](O)C[C@H]3C(=O)N[C@@H](C)c3ccc(-c4scnc4C)cc3)C(C)(C)C)C2)CC1
5 | 9.65% | 37.9% | COc1cc2nc(C)nc(N[C@H](C)c3cc(N)cc(C(F)(F)F)c3)c2cc1C1CCN(C(=O)CCCCCCCCCC(=O)N[C@H](C(=O)N2C[C@H](O)C[C@H]2C(=O)N[C@@H](C)c2ccc(-c3scnc3C)cc2)C(C)(C)C)CC1

Continued, compound first:

Row | SMILES | Activity [1] | Activity [2]
6 | COc1cc2nc(C)nc(N[C@H](C)c3cc(N)cc(C(F)(F)F)c3)c2cc1C1CCN(CCCCCC(=O)N[C@H](C(=O)N2C[C@H](O)C[C@H]2C(=O)N[C@@H](C)c2ccc(-c3scnc3C)cc2)C(C)(C)C)CC1 | 3.04% | 2.02%
7 | COc1cc2nc(C)nc(N[C@H](C)c3cc(N)cc(C(F)(F)F)c3)c2cc1C1CCN(C(=O)CCCCCCCCC(=O)N[C@H](C(=O)N2C[C@H](O)C[C@H]2C(=O)N[C@@H](C)c2ccc(-c3scnc3C)cc2)C(C)(C)C)CC1 | 0% | 0%
8 | COc1cc2nc(C)nc(N[C@H](C)c3cc(N)cc(C(F)(F)F)c3)c2cc1C1CCN(C(=O)C2CCN(CCC(=O)N[C@H](C(=O)N3C[C@H](O)C[C@H]3C(=O)N[C@@H](C)c3ccc(-c4scnc4C)cc3)C(C)(C)C)CC2)CC1 | 21.7% | 22.6%
9 | COc1cc2nc(C)nc(N[C@H](C)c3cc(N)cc(C(F)(F)F)c3)c2cc1C1CCN(C(=O)COCCOCC(=O)N[C@H](C(=O)N2C[C@H](O)C[C@H]2C(=O)N[C@@H](C)c2ccc(-c3scnc3C)cc2)C(C)(C)C)CC1 | 19.6% | 62.5%
10 | COc1cc2nc(C)nc(N[C@H](C)c3cc(N)cc(C(F)(F)F)c3)c2cc1C1CCN(C(=O)CCCC(=O)N[C@H](C(=O)N2C[C@H](O)C[C@H]2C(=O)N[C@@H](C)c2ccc(-c3scnc3C)cc2)C(C)(C)C)CC1 | 9.28% | 11.7%
